Assay [1] concerns the target MAPK14 (human) (UniProt Q16539). In words: Inhibition of MAPK14 Kinase Activity by PHAS-I Assay. Particulars: for inhibition: concentration not given here.
The target is the same in assay [2]. Description: Inhibition of LPS Stimulated TNF Production by U937 Cells. The following applies: for inhibition: concentration not given here.

Bounds are passed on as bounds.

Chain of MAPK14 (human) (Q16539 whole entry, looked up): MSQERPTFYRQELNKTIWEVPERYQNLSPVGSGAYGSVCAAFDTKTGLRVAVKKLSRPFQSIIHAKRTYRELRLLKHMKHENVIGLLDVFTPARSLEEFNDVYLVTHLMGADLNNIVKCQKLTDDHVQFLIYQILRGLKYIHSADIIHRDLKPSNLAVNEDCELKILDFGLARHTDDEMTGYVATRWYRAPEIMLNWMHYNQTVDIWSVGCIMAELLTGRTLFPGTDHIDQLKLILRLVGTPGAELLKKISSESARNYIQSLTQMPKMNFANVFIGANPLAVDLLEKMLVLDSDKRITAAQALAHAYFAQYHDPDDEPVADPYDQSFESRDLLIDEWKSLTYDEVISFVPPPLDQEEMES

Take `Cc1c(-c2ccncc2)c(-c2ccc(F)cc2)nn1CC(=O)[C@H]1CCCN1C(=O)OCc1ccccc1`: the inhibition (commonly the drop in the measured response relative to a control, in per cent) in assay [1] stood at 79%; in assay [2], 19%.
For `CCCCCCCCOc1cccc(NC(=O)Cn2nc(-c3ccc(F)cc3)c(-c3ccncc3)c2C)c1`, in assay [1], the inhibition turned out to be 86%. Moreover, in assay [2], the half-inhibitory concentration (IC50) (usually the concentration that inhibits the measured activity by half) was above 10 µM.
On to `C[C@@H](NC(=O)NCCCc1[nH]nc(-c2ccc(F)cc2)c1-c1ccncc1)c1ccccc1`, for which the inhibition in assay [1] is 65%; in assay [2], 9%.
The matching figures for `CC(Oc1ccccc1)C(=O)NCCCc1[nH]nc(-c2ccc(F)cc2)c1-c1ccncc1` (configuration not stated): 83% and 60%.
As to `Cc1c(-c2ccncc2)c(-c2ccc(F)cc2)nn1CC(=O)NC1CCCC1`, the inhibition stood at 58% in assay [1] and 36% in assay [2].
Turning to `COc1cccc(C(=O)NCCCc2[nH]nc(-c3ccc(F)cc3)c2-c2ccncc2)c1`, the inhibition in assay [1] amounted to 71%. Besides, in assay [2], the half-maximal inhibitory concentration (IC50) was determined as 0.79 µM.
In the case of `O=C(NCCc1[nH]nc(-c2ccc(F)cc2)c1-c1ccncc1)Nc1ccc(Oc2ccccc2)cc1`, the inhibition in assay [1] stood at 63%; in assay [2], 24%.
Take `O=C(NCCc1[nH]nc(-c2ccc(F)cc2)c1-c1ccncc1)c1cccc(Br)c1`: the inhibition in assay [1] was found to be 0%; in assay [2] it was 26%.
Consider `COc1ccc(CC(=O)NCCc2[nH]nc(-c3ccc(F)cc3)c2-c2ccncc2)cc1`, for which the figures for the inhibition in assay [1] and in assay [2] were 55% and 42%, respectively.
The matching figures for `CNC(=O)NCCc1[nH]nc(-c2ccc(F)cc2)c1-c1ccncc1`: 68% and 68%.
The like results for `O=C(NCCc1[nH]nc(-c2ccc(F)cc2)c1-c1ccncc1)Nc1ccc(C(F)(F)F)cc1` were, in that order, 82% and 20%.
In turn, `Cc1cc(Cl)ccc1OCC1SCCN1C(=O)Cn1nc(-c2ccc(F)cc2)c(-c2ccncc2)c1C` (configuration not stated) gave an inhibition in assay [1] of 47%. In assay [2], this molecule had an IC50 above 10 µM.
Regarding `CC(C)=CC(=O)NCCc1[nH]nc(-c2ccc(F)cc2)c1-c1ccncc1`, the inhibition in assay [1] was 67%; in assay [2] it was 25%.
In assay [1], `Cc1cccc(S(=O)(=O)NCc2[nH]nc(-c3ccc(F)cc3)c2-c2ccncc2)c1` showed an IC50 of 0.47 µM. Further, in assay [2], the inhibition was determined as 82%.
As for `O=C(NCCc1[nH]nc(-c2ccc(F)cc2)c1-c1ccncc1)c1ccc(F)c(F)c1F`, the inhibition was found to be 69% in assay [1] and 22% in assay [2].
The matching figures for `O=C(NCCc1[nH]nc(-c2ccc(F)cc2)c1-c1ccncc1)Nc1ccc(Cl)c(Cl)c1`: 79% and 23%.
Molecule `O=C(NCCCc1[nH]nc(-c2ccc(F)cc2)c1-c1ccncc1)NCCN1CCOCC1` displayed an IC50 in assay [1] of 0.055 µM. Moreover, the inhibition in assay [2] stood at 20%.
Molecule `O=C(N[C@H](Cc1ccccc1)c1[nH]nc(-c2ccc(F)cc2)c1-c1ccncc1)c1ccccc1I` showed an IC50 in assay [1] of 0.54 µM. Also, the inhibition in assay [2] was 34%.
Consider `O=C(CCC1CC=CC1)NCc1[nH]nc(-c2ccc(F)cc2)c1-c1ccncc1`, for which the values for the inhibition in assay [1] and in assay [2] were 71% and 84%, respectively.
The like results for `O=C(NCCc1[nH]nc(-c2ccc(F)cc2)c1-c1ccncc1)c1ccccc1` were, in that order, 74% and 29%.
The matching figures for `O=C(NCCc1[nH]nc(-c2ccc(F)cc2)c1-c1ccncc1)Nc1cccc(F)c1`: 72% and 66%.
The like results for `CCCCOc1ccc(NC(=O)NCc2[nH]nc(-c3ccc(F)cc3)c2-c2ccncc2)cc1` were, in that order, 42% and 13%.
For the molecule `CC(C)c1ccccc1NC(=O)NCCc1[nH]nc(-c2ccc(F)cc2)c1-c1ccncc1`, the inhibition was found to be 80% in assay [1] and 29% in assay [2].
The like results for `O=S(=O)(NCCc1[nH]nc(-c2ccc(F)cc2)c1-c1ccncc1)c1ccccc1` were, in that order, 88% and 20%.
The matching figures for `O=C(NCc1[nH]nc(-c2ccc(F)cc2)c1-c1ccncc1)c1ccc(OC(F)(F)F)cc1`: 69% and 45%.
The matching figures for `COc1cccc(CC(=O)NCCc2[nH]nc(-c3ccc(F)cc3)c2-c2ccncc2)c1`: 63% and 31%.
For `O=C(NCCc1[nH]nc(-c2ccc(F)cc2)c1-c1ccncc1)c1ccncc1`, the inhibition was 69% in assay [1] and 38% in assay [2].
In turn, `CC1(C)[C@H]2CC[C@@]1(CCS(=O)(=O)NCc1[nH]nc(-c3ccc(F)cc3)c1-c1ccncc1)C(=O)C2` gave a half-maximal inhibitory concentration (IC50) in assay [1] below 0.1 µM. This molecule came in with an inhibition in assay [2] of 11%.
Take `Cc1c(-c2ccncc2)c(-c2ccc(F)cc2)nn1CC(=O)N1CCCCC1CCN1CCCCC1` (configuration not stated): the values for the inhibition in assay [1] and in assay [2] were 26% and 13%, respectively.
As to `C[C@H](NC(=O)c1cc(F)cc(F)c1)c1[nH]nc(-c2ccc(F)cc2)c1-c1ccncc1`, in assay [1], the IC50 was 0.062 µM. This molecule also gave an inhibition in assay [2] of 45%.
Turning to `CCN(CC)C(=O)Cn1nc(-c2ccc(F)cc2)c(-c2ccncc2)c1C`, the inhibition in assay [1] was 54%; in assay [2], 36%.
In turn, `Cc1c(-c2ccncc2)c(-c2ccc(F)cc2)nn1CC(=O)Nc1ccccc1OC(F)(F)F` returned an inhibition in assay [1] of 91%. The same molecule came in with a concentration for half-maximal inhibition (IC50) in assay [2] above 10 µM.
In the case of `O=S(=O)(NCc1[nH]nc(-c2ccc(F)cc2)c1-c1ccncc1)C(F)(F)F`, the IC50 was 2.4 µM in assay [1] and above 1 µM in assay [2].
As to `CCOC(=O)c1cccc(NC(=O)NCCc2[nH]nc(-c3ccc(F)cc3)c2-c2ccncc2)c1`, the inhibition in assay [1] stood at 82%; in assay [2] it was 2%.
Take `O=C(NCCc1[nH]nc(-c2ccc(F)cc2)c1-c1ccncc1)Nc1cc(Cl)cc(Cl)c1`: the inhibition in assay [1] is 44%; in assay [2] it was 21%.
As for `C[C@H](NS(=O)(=O)c1cc(Cl)cc(Cl)c1O)c1[nH]nc(-c2ccc(F)cc2)c1-c1ccncc1`, in assay [1], the IC50 was determined as 0.17 µM. In assay [2], this molecule gave an inhibition of 76%.
Take `Cc1c(-c2ccncc2)c(-c2ccc(F)cc2)nn1CC(=O)Nc1ccccc1Sc1ccc([N+](=O)[O-])cn1`: the inhibition amounted to 90% in assay [1] and 18% in assay [2].
As for `CCC(=O)C(=O)CNC(=O)NCc1[nH]nc(-c2ccc(F)cc2)c1-c1ccncc1`, the inhibition in assay [1] was found to be 51%. The IC50 in assay [2] is above 1 µM.
For the molecule `Cc1c(-c2ccncc2)c(-c2ccc(F)cc2)nn1CC(=O)N1CCC[C@H]1CN1CCCC1`, the inhibition in assay [1] was determined as 49%; in assay [2] it was 10%.
In turn, `COc1ccc(Br)cc1S(=O)(=O)N[C@@H](C)c1[nH]nc(-c2ccc(F)cc2)c1-c1ccncc1` returned a half-maximal inhibitory concentration (IC50) in assay [1] of 1.78 µM. In addition, the inhibition in assay [2] worked out at 81%.
As for `O=C(NCCc1[nH]nc(-c2ccc(F)cc2)c1-c1ccncc1)N[C@@H]1C[C@@H]1c1ccccc1`, the inhibition in assay [1] stood at 81%; in assay [2], 25%.
The matching figures for `Cc1c(-c2ccncc2)c(-c2ccc(F)cc2)nn1CC(=O)Nc1ccc(S(=O)(=O)C(F)F)cc1`: 90% and 28%.
Turning to `O=C(NCc1[nH]nc(-c2ccc(F)cc2)c1-c1ccncc1)N1CCCC1`, the IC50 was 0.55 µM in assay [1] and above 1 µM in assay [2].
For the molecule `O=C(NCc1[nH]nc(-c2ccc(F)cc2)c1-c1ccncc1)C(F)(F)C(F)(F)C(F)(F)F`, the inhibition in assay [1] came to 96%; in assay [2], 54%.
In turn, `COC(=O)[C@H](CSCc1ccccc1)NC(=O)Cn1nc(-c2ccc(F)cc2)c(-c2ccncc2)c1C` displayed an inhibition in assay [1] of 84%. Moreover, in assay [2], the 50% inhibitory concentration (IC50) was above 10 µM.
As for `O=S(=O)(NCCCc1[nH]nc(-c2ccc(F)cc2)c1-c1ccncc1)c1ccc(F)cc1F`, the inhibition was 52% in assay [1] and 60% in assay [2].
The matching figures for `O=C(Cc1cccs1)NCCc1[nH]nc(-c2ccc(F)cc2)c1-c1ccncc1`: 68% and 41%.
The matching figures for `CCOC(=O)C(CC(C)C)NC(=O)C(=O)NCCc1[nH]nc(-c2ccc(F)cc2)c1-c1ccncc1` (configuration not stated): 60% and 26%.
Regarding `O=S(=O)(NCCc1[nH]nc(-c2ccc(F)cc2)c1-c1ccncc1)c1ccc(Cl)c(Cl)c1`, in assay [1], the IC50 turned out to be 0.33 µM. The same molecule showed an inhibition in assay [2] of 36%.
For `O=S(=O)(NCCc1[nH]nc(-c2ccc(F)cc2)c1-c1ccncc1)c1ccc(F)cc1F`, the inhibition in assay [1] was found to be 88%; in assay [2], 34%.
In the case of `COCC(=O)NCCc1[nH]nc(-c2ccc(F)cc2)c1-c1ccncc1`, the inhibition in assay [1] was 55%; in assay [2], 43%.
The like results for `CC(C)(C)C(=O)NCCc1[nH]nc(-c2ccc(F)cc2)c1-c1ccncc1` were, in that order, 69% and 66%.
The like results for `CC(=O)O[C@@H](C)C(=O)NCCc1[nH]nc(-c2ccc(F)cc2)c1-c1ccncc1` were, in that order, 57% and 73%.
The like results for `CCN(CC)CCN(Cc1ccc(Cl)cc1)C(=O)Cn1nc(-c2ccc(F)cc2)c(-c2ccncc2)c1C` were, in that order, 55% and 10%.
For `COC(=O)[C@@H]1CCCN1C(=O)Cn1nc(-c2ccc(F)cc2)c(-c2ccncc2)c1C`, the inhibition in assay [1] was determined as 60%; in assay [2], 39%.
The matching figures for `O=S(=O)(/C=C/c1ccccc1)NCCCc1[nH]nc(-c2ccc(F)cc2)c1-c1ccncc1`: 69% and 65%.
`Cc1ccc(S(=O)(=O)N[C@H](CCc2ccccc2)C(=O)NCc2[nH]nc(-c3ccc(F)cc3)c2-c2ccncc2)cc1` showed an inhibition in assay [1] of 94%. The same molecule displayed an IC50 in assay [2] of 10 µM.
Take `COc1ccc(NC(=O)N2CCC(c3[nH]nc(-c4ccc(F)cc4)c3-c3ccncc3)CC2)c(OC)c1`: the IC50 in assay [1] was below 0.1 µM; in assay [2], 0.44 µM.
Consider `COc1cc(NC(=O)NCCc2[nH]nc(-c3ccc(F)cc3)c2-c2ccncc2)cc(OC)c1OC`, for which the figures for the inhibition in assay [1] and in assay [2] were 56% and 23%, respectively.
The matching figures for `CC[C@H](C)NC(=O)Cn1nc(-c2ccc(F)cc2)c(-c2ccncc2)c1C`: 76% and 38%.
Regarding `N#Cc1ccc(S(=O)(=O)NCCCc2[nH]nc(-c3ccc(F)cc3)c2-c2ccncc2)cc1`, the IC50 in assay [1] is below 0.1 µM. Moreover, in assay [2], the inhibition was 75%.

These data come from the Kinase Knowledgebase extract (Sharma et al. 2016).
